Results as given in ChEMBL document CHEMBL1201861, “Genomics of Drug Sensitity in Cancer screening data, Wellcome Trust Sanger Institute”.

Columns and labels:
Test in all cases: cells
[1] = system: ES3; assay type: functional, cell-based, Homo sapiens; conditions: Homo sapiens, ES3;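 also: growth inhibition of ES3 cells, read out with a cell viability assay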
Description: SANGER: Inhibition of human ES3 cell growth in a cell viability assay.

[2] = system: EW-13; assay type: functional, cell-based; conditions: Homo sapiens;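 also: growth inhibition of EW-13 cells, read out with a cell viability assay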
Description: SANGER: Inhibition of human EW-13 cell growth in a cell viability assay.

[3] = system: GB-1; assay type: functional, cell-based, Homo sapiens; conditions: Homo sapiens, GB-1;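 also: growth of GB-1 cells judged by a viability assay, IC50 marks the concentration inhibiting growth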
Description: SANGER: Inhibition of human GB-1 cell growth in a cell viability assay.

[4] = system: GCIY; assay type: functional, cell-based, Homo sapiens; conditions: Homo sapiens, GCIY;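 also: growth inhibition of the human GCIY cell line, read out by a cell viability assay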
Description: SANGER: Inhibition of human GCIY cell growth in a cell viability assay.

[5] = system: GOTO; assay type: functional, cell-based, Homo sapiens; conditions: Homo sapiens, GOTO;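 also: growth inhibition of GOTO cells, read out by a cell viability assay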
Description: SANGER: Inhibition of human GOTO cell growth in a cell viability assay.

[6] = system: GR-ST; assay type: functional, cell-based; conditions: Homo sapiens
Description: SANGER: Inhibition of human GR-ST cell growth in a cell viability assay.

[7] = system: GT3TKB; assay type: functional, cell-based, Homo sapiens; conditions: Homo sapiens, GT3TKB;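 also: growth inhibition of the cell line, read out with a cell viability assay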
Description: SANGER: Inhibition of human GT3TKB cell growth in a cell viability assay.

[8] = system: HC-1; assay type: functional, cell-based; conditions: Homo sapiens;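 also: growth inhibition of HC-1 cells measured by a cell viability assay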
Description: SANGER: Inhibition of human HC-1 cell growth in a cell viability assay.

[9] = system: HCC1395; assay type: functional, cell-based, Homo sapiens; conditions: Homo sapiens, HCC1395;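 also: growth inhibition of HCC1395 cells, read out by a cell viability assay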
Description: SANGER: Inhibition of human HCC1395 cell growth in a cell viability assay.

[10] = system: HCC1419; assay type: functional, cell-based, Homo sapiens; conditions: Homo sapiens, HCC1419;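 also: growth inhibition of human HCC1419 cells, read out as cell viability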
Description: SANGER: Inhibition of human HCC1419 cell growth in a cell viability assay.

[11] = system: HCC1937; assay type: functional, cell-based, Homo sapiens; conditions: Homo sapiens, HCC1937;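 also: growth inhibition measured with a cell viability read-out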
Description: SANGER: Inhibition of human HCC1937 cell growth in a cell viability assay.

[12] = system: HPAF-II; assay type: functional, cell-based, Homo sapiens; conditions: Homo sapiens, HPAF-II;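 also: growth inhibition of HPAF-II cells, read out with a cell viability assay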
Description: SANGER: Inhibition of human HPAF-II cell growth in a cell viability assay.

[13] = system: HuCCT-1; assay type: functional, cell-based, Homo sapiens, HuCCT1; conditions: Homo sapiens, HuCCT-1;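 also: growth inhibition of HuCCT-1 cells, read out by a cell viability assay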
Description: SANGER: Inhibition of human HuCCT1 cell growth in a cell viability assay.

[14] = system: HuP-T4; assay type: functional, cell-based, Homo sapiens; conditions: Homo sapiens, HuP-T4;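 also: cell viability assay measuring how much HuP-T4 cell growth is inhibited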
Description: SANGER: Inhibition of human HuP-T4 cell growth in a cell viability assay.

[15] = system: KP-N-YS; assay type: functional, cell-based; conditions: Homo sapiens;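 also: cell viability assay measuring inhibition of cell line growth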
Description: SANGER: Inhibition of human KP-N-YS cell growth in a cell viability assay.

[16] = system: KYSE-140; assay type: functional, cell-based, Homo sapiens; conditions: Homo sapiens, KYSE-140;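 also: cell viability assay measuring growth inhibition in human KYSE-140 cells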
Description: SANGER: Inhibition of human KYSE-140 cell growth in a cell viability assay.

[17] = system: KYSE-270; assay type: functional, cell-based, Homo sapiens; conditions: Homo sapiens, KYSE-270;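 also: cell growth inhibition measured with a viability assay in the human KYSE-270 line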
Description: SANGER: Inhibition of human KYSE-270 cell growth in a cell viability assay.

[18] = system: MDA-MB-231; assay type: functional, cell-based, Homo sapiens; conditions: Homo sapiens, MDA-MB-231
Description: SANGER: Inhibition of human MDA-MB-231 cell growth in a cell viability assay.

[19] = system: MHH-NB-11; assay type: functional, cell-based, Homo sapiens; conditions: Homo sapiens, MHH-NB-11;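 also: growth inhibition of human MHH-NB-11 cells, read out by a cell viability assay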
Description: SANGER: Inhibition of human MHH-NB-11 cell growth in a cell viability assay.

[20] = system: MKN-1; assay type: functional, cell-based, Homo sapiens; conditions: Homo sapiens, MKN-1;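 also: growth inhibition of human MKN1 cells, read out by a cell viability measurement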
Description: SANGER: Inhibition of human MKN1 cell growth in a cell viability assay.

[21] = system: MMAC-SF; assay type: functional, cell-based, Homo sapiens; conditions: Homo sapiens, MMAC-SF;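 also: growth inhibition of human MMAC-SF cells, read out with a cell viability assay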
Description: SANGER: Inhibition of human MMAC-SF cell growth in a cell viability assay.

[22] = system: MS-1; assay type: functional, cell-based; conditions: Homo sapiens;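 also: growth inhibition of MS-1 cells, read out by cell viability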
Description: SANGER: Inhibition of human MS-1 cell growth in a cell viability assay.

[23] = system: NCI-H1092; assay type: functional, cell-based; conditions: Homo sapiens;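 also: cell growth inhibition measured with a cell viability assay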
Description: SANGER: Inhibition of human NCI-H1092 cell growth in a cell viability assay.

[24] = system: NCI-H1299; assay type: functional, cell-based, Homo sapiens; conditions: Homo sapiens, NCI-H1299;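 also: growth inhibition of human NCI-H1299 cells, read out by a cell viability assay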
Description: SANGER: Inhibition of human NCI-H1299 cell growth in a cell viability assay.

[25] = system: NCI-H2452; assay type: functional, cell-based, Homo sapiens; conditions: Homo sapiens, NCI-H2452;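 also: growth inhibition of NCI-H2452 cells, read out with a cell viability assay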
Description: SANGER: Inhibition of human NCI-H2452 cell growth in a cell viability assay.

[26] = system: NCI-H661; assay type: functional, cell-based, Homo sapiens; conditions: Homo sapiens, NCI-H661;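 also: cell viability assay read-out, IC50 being the concentration that inhibits growth of the cells by half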
Description: SANGER: Inhibition of human NCI-H661 cell growth in a cell viability assay.

[27] = system: NCI-N87; assay type: functional, cell-based, Homo sapiens; conditions: Homo sapiens, NCI-N87;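 also: growth inhibition of human NCI-N87 cells, read out with a cell viability assay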
Description: SANGER: Inhibition of human NCI-N87 cell growth in a cell viability assay.

[28] = system: OAW-28; assay type: functional, cell-based, Homo sapiens; conditions: Homo sapiens, OAW-28;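 also: growth inhibition of OAW-28 cells, read out with a cell viability assay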
Description: SANGER: Inhibition of human OAW-28 cell growth in a cell viability assay.

[29] = system: OVCAR-5; assay type: functional, cell-based, Homo sapiens; conditions: Homo sapiens, OVCAR-5;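 also: growth inhibition of human OVCAR-5 cells, read out with a cell viability assay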
Description: SANGER: Inhibition of human OVCAR-5 cell growth in a cell viability assay.

[30] = system: P12-Ichikawa; assay type: functional, cell-based; conditions: Homo sapiens
[31] = system: PFSK-1; assay type: functional, cell-based, Homo sapiens; conditions: Homo sapiens, PFSK-1;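 also: cell viability assay measuring how strongly compounds suppress growth of human PFSK-1 cells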
Description: SANGER: Inhibition of human PFSK-1 cell growth in a cell viability assay.

[32] = system: RO82-W-1; assay type: functional, cell-based, Homo sapiens; conditions: Homo sapiens, RO82-W-1;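 also: growth inhibition of human RO82-W-1 cells, measured with a cell viability assay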
Description: SANGER: Inhibition of human RO82-W-1 cell growth in a cell viability assay.

[33] = system: RS4-11; assay type: functional, cell-based; conditions: Homo sapiens;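 also: growth inhibition of RS4-11 cells, read out by a cell viability assay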
Description: SANGER: Inhibition of human RS4-11 cell growth in a cell viability assay.

[34] = system: SBC-1; assay type: functional, cell-based; conditions: Homo sapiens;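 also: cell viability assay measuring growth inhibition of the SBC-1 cell line, IC50 being the concentration that halves growth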
Description: SANGER: Inhibition of human SBC-1 cell growth in a cell viability assay.

[35] = system: SBC-5; assay type: functional, cell-based, Homo sapiens; conditions: Homo sapiens, SBC-5;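 also: cell viability assay read-out, IC50 is the concentration that inhibits growth of the cells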
Description: SANGER: Inhibition of human SBC-5 cell growth in a cell viability assay.

[36] = system: SCC-15; assay type: functional, cell-based, Homo sapiens; conditions: Homo sapiens, SCC-15;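 also: growth inhibition of SCC-15 cells, read out with a cell viability assay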
Description: SANGER: Inhibition of human SCC-15 cell growth in a cell viability assay.

[37] = system: SCC-4; assay type: functional, cell-based, Homo sapiens; conditions: Homo sapiens, SCC-4;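 also: growth inhibition of human SCC-4 cells, read out as cell viability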
Description: SANGER: Inhibition of human SCC-4 cell growth in a cell viability assay.

[38] = system: SK-N-DZ; assay type: functional, cell-based, Homo sapiens; conditions: Homo sapiens, SK-N-DZ;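 also: growth inhibition of the cancer cell line, read out through a viability assay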
Description: SANGER: Inhibition of human SK-N-DZ cell growth in a cell viability assay.

[39] = system: SKG-IIIa; assay type: functional, cell-based, Homo sapiens; conditions: Homo sapiens, SKG-IIIa;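 also: cell growth inhibition, read out with a cell viability assay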
Description: SANGER: Inhibition of human SKG-IIIa cell growth in a cell viability assay.

[40] = system: SW982; assay type: functional, cell-based; conditions: Homo sapiens;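 also: growth inhibition of SW982 cells, read out with a cell viability assay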
Description: SANGER: Inhibition of human SW982 cell growth in a cell viability assay.

[41] = system: T84; assay type: functional, cell-based, Homo sapiens; conditions: Homo sapiens, T84;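 also: growth inhibition measured with a cell viability readout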
Description: SANGER: Inhibition of human T84 cell growth in a cell viability assay.

[42] = system: 697; assay type: functional, cell-based; conditions: Homo sapiens
Description: SANGER: Inhibition of human 697 cell growth in a cell viability assay.

[43] = system: 769-P; assay type: functional, cell-based, Homo sapiens; conditions: Homo sapiens, 769-P
Description: SANGER: Inhibition of human 769-P cell growth in a cell viability assay.

[44] = system: A2058; assay type: functional, cell-based; conditions: Homo sapiens;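 also: reduction of A2058 cell growth, read out with a viability assay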
Description: SANGER: Inhibition of human A2058 cell growth in a cell viability assay.

[45] = system: CAL-120; assay type: functional, cell-based, Homo sapiens; conditions: Homo sapiens, CAL-120;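 also: cell growth inhibition, read out as cell viability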
Description: SANGER: Inhibition of human CAL-120 cell growth in a cell viability assay.

[46] = system: CAL-39; assay type: functional, cell-based, Homo sapiens; conditions: Homo sapiens, CAL-39;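 also: cell viability assay measuring growth inhibition of CAL-39 cells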
Description: SANGER: Inhibition of human CAL-39 cell growth in a cell viability assay.

[47] = system: TE-6; assay type: functional, cell-based, Homo sapiens; conditions: Homo sapiens, TE-6;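 also: growth inhibition of TE-6 cells, read out with a cell viability assay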
Description: SANGER: Inhibition of human TE-6 cell growth in a cell viability assay.

[48] = system: TE-8; assay type: functional, cell-based, Homo sapiens; conditions: Homo sapiens, TE-8;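 also: growth inhibition of TE-8 cells, measured with a cell viability readout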
Description: SANGER: Inhibition of human TE-8 cell growth in a cell viability assay.

[49] = system: U-266; assay type: functional, cell-based; conditions: Homo sapiens
Description: SANGER: Inhibition of human U-266 cell growth in a cell viability assay.

[50] = system: CAS-1; assay type: functional, cell-based, Homo sapiens; conditions: Homo sapiens, CAS-1;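 also: growth inhibition of CAS-1 cells, measured with a cell viability assay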
Description: SANGER: Inhibition of human CAS-1 cell growth in a cell viability assay.

[51] = system: CHL-1; assay type: functional, cell-based, Homo sapiens; conditions: Homo sapiens, CHL-1;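 also: cell growth inhibition, read out with a cell viability assay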
Description: SANGER: Inhibition of human CHL-1 cell growth in a cell viability assay.

[52] = system: COLO-680N; assay type: functional, cell-based, Homo sapiens; conditions: Homo sapiens, COLO-680N;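 also: cell viability assay used to measure inhibition of COLO-680N cell growth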
Description: SANGER: Inhibition of human COLO-680N cell growth in a cell viability assay.

Compound: Cn1cncc1[C@@](N)(c1ccc(Cl)cc1)c1ccc2c(c1)c(-c1cccc(Cl)c1)cc(=O)n2C [TIPIFARNIB]
- IC50 [1]: 11800 nM
- IC50 [2]: 6480 nM
- IC50 [3]: 3700 nM
- IC50 [4]: 12500 nM
- IC50 [5]: > 16000 nM
- IC50 [6]: 2870 nM
- IC50 [7]: 3010 nM
- IC50 [8]: 1750 nM
- IC50 [9]: 14900 nM
- IC50 [10]: 4650 nM
- IC50 [11]: 9020 nM
- IC50 [12]: 7570 nM
- IC50 [13]: 4310 nM
- IC50 [14]: 3030 nM
- IC50 [15]: > 16000 nM
- IC50 [16]: 1110 nM
- IC50 [17]: 217 nM
- IC50 [18]: 5830 nM
- IC50 [19]: > 16000 nM
- IC50 [20]: 1880 nM
- IC50 [21]: 13700 nM
- IC50 [22]: > 16000 nM
- IC50 [23]: > 16000 nM
- IC50 [24]: 693 nM
- IC50 [25]: > 16000 nM
- IC50 [26]: 7500 nM
- IC50 [27]: > 16000 nM
- IC50 [28]: > 16000 nM
- IC50 [29]: > 16000 nM
- IC50 [30]: 10400 nM
- IC50 [31]: > 16000 nM
- IC50 [32]: > 16000 nM
- IC50 [33]: 1940 nM
- IC50 [34]: > 16000 nM
- IC50 [35]: 2810 nM
- IC50 [36]: 10800 nM
- IC50 [37]: 1330 nM
- IC50 [38]: 4710 nM
- IC50 [39]: > 16000 nM
- IC50 [40]: > 16000 nM
- IC50 [41]: 546 nM
- IC50 [42]: 1280 nM
- IC50 [43]: 4190 nM
- IC50 [44]: 11800 nM
- IC50 [45]: > 16000 nM
- IC50 [46]: 962 nM
- IC50 [47]: 7210 nM
- IC50 [48]: 928 nM
- IC50 [49]: > 16000 nM
- IC50 [50]: > 16000 nM
- IC50 [51]: 805 nM
- IC50 [52]: 5630 nM

Compound: CCC1=C[C@@H]2CN(C1)Cc1c([nH]c3ccccc13)[C@@](C(=O)OC)(c1cc3c(cc1OC)N(C)[C@H]1[C@@](O)(C(=O)OC)[C@H](OC(C)=O)[C@]4(CC)C=CCN5CC[C@]31[C@@H]54)C2 [VINORELBINE]
- IC50 [1]: 28.1 nM
- IC50 [2]: 6.62 nM
- IC50 [3]: > 64 nM
- IC50 [4]: 57.9 nM
- IC50 [5]: > 64 nM
- IC50 [6]: 8.27 nM
- IC50 [7]: 0.748 nM
- IC50 [8]: 3.89 nM
- IC50 [9]: 15.9 nM
- IC50 [10]: > 64 nM
- IC50 [11]: > 64 nM
- IC50 [12]: 16.6 nM
- IC50 [13]: 2.78 nM
- IC50 [14]: 37.3 nM
- IC50 [15]: 21.8 nM
- IC50 [16]: 23.8 nM
- IC50 [17]: 3.16 nM
- IC50 [18]: 37.4 nM
- IC50 [19]: 17.7 nM
- IC50 [20]: 11.8 nM
- IC50 [21]: 20.5 nM
- IC50 [22]: > 64 nM
- IC50 [23]: 58.1 nM
- IC50 [24]: 13.6 nM
- IC50 [25]: > 64 nM
- IC50 [26]: 20.4 nM
- IC50 [27]: 44.1 nM
- IC50 [28]: 15.2 nM
- IC50 [29]: > 64 nM
- IC50 [30]: 25.2 nM
- IC50 [31]: 20.5 nM
- IC50 [32]: > 64 nM
- IC50 [33]: 7.99 nM
- IC50 [34]: > 64 nM
- IC50 [35]: 2.08 nM
- IC50 [36]: 8.7 nM
- IC50 [37]: 2.58 nM
- IC50 [38]: > 64 nM
- IC50 [39]: > 64 nM
- IC50 [40]: 5.3 nM
- IC50 [41]: 53.9 nM
- IC50 [42]: 4.23 nM
- IC50 [43]: 16.9 nM
- IC50 [44]: 3.5 nM
- IC50 [45]: 43.6 nM
- IC50 [46]: 4.26 nM
- IC50 [47]: > 64 nM
- IC50 [48]: 46 nM
- IC50 [49]: 17.5 nM
- IC50 [50]: 40.1 nM
- IC50 [51]: 4.6 nM
- IC50 [52]: 53.3 nM
